Data reported in patent US6946473B2, “Preparation and use of acetylenic ortho-sulfonamido and phosphinic acid amido bicyclic heteroaryl hydroxamic acids as TACE inhibitors” (priority 1999, dated 2005).

How the values were obtained:
[1] = target: T1, MMP-1 (Homo sapiens, UniProt P03956); assay: MMP-1 inhibition (thiopeptide or fluorescent peptide substrate); format: biochemical
T1 sequence (P03956 100-469): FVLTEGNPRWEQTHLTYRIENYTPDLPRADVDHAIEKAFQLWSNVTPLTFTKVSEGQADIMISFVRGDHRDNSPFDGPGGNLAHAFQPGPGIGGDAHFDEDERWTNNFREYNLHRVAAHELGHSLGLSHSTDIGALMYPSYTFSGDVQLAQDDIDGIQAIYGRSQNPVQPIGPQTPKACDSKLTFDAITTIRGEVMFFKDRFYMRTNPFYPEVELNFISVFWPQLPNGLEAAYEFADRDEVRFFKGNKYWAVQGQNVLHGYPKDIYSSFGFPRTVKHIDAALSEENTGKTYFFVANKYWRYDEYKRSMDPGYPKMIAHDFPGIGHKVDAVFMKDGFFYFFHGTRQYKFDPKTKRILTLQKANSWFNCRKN

melting point [°C]	Compound	IC50 [1] [nM]
–	CC#CCOc1ccc(S(=O)(=O)N(C)c2c(C(=O)NO)cnc3onc(C)c23)cc1 [Example 9, 4-[(4-But-2-ynyloxy-benzenesulfonyl)-methyl-amino]-3-methyl-isoxazolo[5,4-b]pyridine-5-carboxylic acid hydroxyamide]	1910
189 to 192	CC#CCOc1ccc(S(=O)(=O)N(C)c2c(C(=O)NO)cnc3c2c(C)nn3C)cc1 [Example 7, 4-[(4-But-2-ynyloxy-benzenesulfonyl)-methyl-amino]-1,3-dimethyl-1H-pyrazolo[3,4-b]pyridine-5-carboxylic acid hydroxyamide]	–
183 to 184	CC#CCOc1ccc(S(=O)(=O)N(C)c2c(C(=O)NO)cnc3snc(C)c23)cc1 [Example 13, 4-[(4-But-2-ynyloxy-benzenesulfonyl)-methyl-amino]-3-methyl-isothiazolo[5,4-b]pyridine-5-carboxylic acid hydroxyamide]	–
